Legend:
[1] = xn = mol fraction of the nth substance listed; settings: 100 kPa, Liquid; for speed of sound: Frequency=3 MHz, Single path-length method; for mass density: Vibrating tube method
[2] = refractive index (Na D-line) (dimensionless); xn = mol fraction of the nth substance listed; settings: 100 kPa, Liquid, Standard Abbe refractometry

CN(C)CCCO [3-dimethylamino-1-propanol] + C[S+](C)[O-]
Settings	mass density, [1] [kg/m3]	refractive index, [2]	speed of sound, [1] [m/s]
293.15 K, x2 = 0	885	1.437	1395.8
293.15 K, x2 = 0.0517	891	1.438	1397.6
293.15 K, x2 = 0.0986	898	1.439	1398.4
293.15 K, x2 = 0.1998	911	1.442	1401.4
293.15 K, x2 = 0.3	927	1.444	1405.2
293.15 K, x2 = 0.3998	944	1.447	1411.3
293.15 K, x2 = 0.5031	963	1.451	1418.8
293.15 K, x2 = 0.5988	983	1.455	1428.3
293.15 K, x2 = 0.6998	1007	1.46	1441.3
293.15 K, x2 = 0.7918	1032	1.465	1456
293.15 K, x2 = 0.899	1065	1.472	1478
293.15 K, x2 = 0.9494	1082	1.476	1489.6
303.15 K, x2 = 0	877	1.433	1358.8
303.15 K, x2 = 0.0517	883	1.434	1360.9
303.15 K, x2 = 0.0986	889	1.435	1361.8
303.15 K, x2 = 0.1998	903	1.437	1365.3
303.15 K, x2 = 0.3	918	1.44	1369.9
303.15 K, x2 = 0.3998	935	1.443	1375.7
303.15 K, x2 = 0.5031	954	1.447	1383.9
303.15 K, x2 = 0.5988	974	1.451	1393.6
303.15 K, x2 = 0.6998	998	1.456	1406.9
303.15 K, x2 = 0.7918	1023	1.46	1421.8
303.15 K, x2 = 0.899	1055	1.467	1444.5
303.15 K, x2 = 0.9494	1072	1.471	1455.9
313.15 K, x2 = 0	869	1.429	1322.1
313.15 K, x2 = 0.0517	875	1.43	1324.4
313.15 K, x2 = 0.0986	881	1.431	1325.4
313.15 K, x2 = 0.1998	895	1.433	1328.9
313.15 K, x2 = 0.3	910	1.436	1334.4
313.15 K, x2 = 0.3998	926	1.439	1340.7
313.15 K, x2 = 0.5031	946	1.443	1349.3
313.15 K, x2 = 0.5988	965	1.447	1359.3
313.15 K, x2 = 0.6998	989	1.451	1372.9
313.15 K, x2 = 0.7918	1013	1.456	1388.1
313.15 K, x2 = 0.899	1046	1.463	1410.9
313.15 K, x2 = 0.9494	1062	1.467	1422.3
323.15 K, x2 = 0	860	1.425	1285.7
323.15 K, x2 = 0.0517	867	1.426	1288.2
323.15 K, x2 = 0.0986	873	1.427	1289.5
323.15 K, x2 = 0.1998	886	1.429	1293.8
323.15 K, x2 = 0.3	901	1.432	1299.3
323.15 K, x2 = 0.3998	918	1.435	1306.1
323.15 K, x2 = 0.5031	937	1.439	1315.1
323.15 K, x2 = 0.5988	956	1.443	1325.5
323.15 K, x2 = 0.6998	980	1.447	1339.4
323.15 K, x2 = 0.7918	1004	1.452	1354.7
323.15 K, x2 = 0.899	1036	1.459	1377.6
323.15 K, x2 = 0.9494	1052	1.462	1389

From the NIST ThermoML archive (doi:10.1016/j.jct.2018.02.018)
